Data reported in US20050256168A1, “Compositions for oral administration for the treatment of interferon-responsive disorders” (priority 2004, published 2005).
“Also recorded” adds a separate entry of the source. Like-named read-outs stand apart in the source and are kept apart here.

Legend:
[1] = test system: bovine viral diarrhea virus (BVDV); experiment: BVDV antiviral activity in tissue cultures of infected MDBK cells; format: cell-based
Text: The IC50 for 6-O-nonyl-deoxynojirimycin, for example, bovine viral diarrhea virus (BVDV), in tissue cultures of BVDV infected MDBK cells, a surrogate of hepatitis C virus is 3 micro-molar.

[2] = test system: glucosidase; experiment: Glucosidase inhibitory activity; format: biochemical
[3] = test system: 2′,5′ OAS gene; experiment: Induction of 2′,5′ OAS genes in Hep G2 cells by R/T PCR and Southern blot-R/T PCR; conditions: 16 hours; for induction of medium (p69) and small (p40) 2′,5′ OAS genes: R/T PCR
Description: Hep G2 cells were treated with the indicated doses of A) alpha galactosyl ceramide or with B) N-9-oxadecyl-6-methyl-DGJ (b) for 16 hours and the induction of the medium (p69) and small (p40) isoforms of the […] OAS gene determined by R/T PCR. For each set, actin levels were also monitored as a control for loading. […] C) Southern blot- R/T PCR of RNA from Hep G2 cells treated with the indicated concentration of N-9-oxadecyl-6-methyl-DGJ or with 10^3 iU/mL interferon alpha (2a/2b) for 16 hours. Briefly, limited PCR was performed as described for 5, 10, 15 cycles and the PCR products transferred to nylon membrane before hybridization with a 1377 bp cDNA probe from nucleotides 1 to 1377 from the published OAS-40/46 gene (accession #X02874). Actin controls were performed in the same manner.
The ability of alpha galactosyl ceramide and N-9-oxadecyl-6-methyl-DGJ to directly induce the innate host defense pathway in tissue culture was determined by analysis of the induction of the 2′-5′ oligoadenylate synthetase genes (2′,5′ OAS) using an RT PCR based methodology.
Briefly, Hep G2 cells were incubated with either alpha galactose ceramide or the synthetic glycolipids shown in FIG. 1 for the desired length of time and the total RNA harvested using Tri-reagent as per manufactures directions (Gibco-BRL, Rockville, Md., USA). RNA samples were further purified using the Ambion DNA™ free kit, (Ambion, Inc., Austin, Tex., USA) before reverse transcriptase (RT) PCR with the PCR conditions and primers exactly as reported in the literature. PCR was performed in the absence of (RT) for 50 cycles to ensure no DNA contamination. Dilution experiments were used to ensure that PCR was within the linear range of the assay. Southern blot-R/T PCR of RNA from Hep G2 cells treated with the indicated concentration of N-9-oxadecyl-6-methyl-DGJ or with interferon alpha (2a/2b) for 16 hours was also performed to allow for quantification of induction. Briefly, limited PCR was performed as described above for 5, 10, 15 cycles and the PCR products transferred to nylon membrane. Hybridization was carried out using a 1377 bp cDNA probe from nucleotides I to 1377 from the published OAS40/46 gene (accession #X02874). OAS-40/46 specific bands were identified and quantified by phosphor image analysis [Bio-Rad, Hercules, Calif.].

[4] = test system: HBV; conditions: from Antimicrob Agents Chemother. 2002; 46(12): 4004-4008; cited from earlier work
[5] = test system: HBV; experiment: Secretion of enveloped HBV DNA into culture medium of Hep G2 2.2.15 cells; format: cell-based, hepatitis B virus; conditions: for IC50: Hep G2 2.2.15 cells, 3 days, read-out: IC50 (anti-viral, HBV); for secretion of enveloped HBV (HBV rc DNA in culture medium): Hep G2 2.2.15, 3 days, alpha galactosyl ceramide 0.1-100 nM, N-9-oxadecyl-6-methyl-DGJ 0.8-25 μM, interferon alpha 10^3 iU/mL
[6] = test system: Hep G2 2.2.15 cells; experiment: MTT toxicity test; format: cell-based
Description: A) Alpha galactosyl ceramide inhibits HBV in vitro. […] Briefly, Hep G2 2.2.15 cells, which secrete hepatitis B virus, were either left untreated or treated with 10^3 iU/mL of interferon alpha (2a/2b) or 0.1 nM to 100 nM of alpha galactosyl ceramide for three days and the amount of HBV specific DNA detected in the culture medium using a method which discriminates between enveloped and non enveloped viral particles. The HBV rc DNA, which decreases with both interferon and alpha galactose ceramide treatment is indicated. […] Hep G2 2.2.15 cells were left untreated or treated with varying doses of the synthetic glycolipid N-9-oxadecyl-6-methyl-DGJ (0.8 μM to 25 μM) for 3 days and the level of HBV secreted into the culture medium detected as before. […] The HBV rc DNA, which decreases with N-9-oxadecyl-6-methyl-DGJ, interferon, and alpha galactosyl ceramide treatment is indicated. C-D) Cells treated with alpha-galactosyl ceramide or the synthetic glycolipid N-9-oxadecyl-6-methyl-DGJ were tested for viability using the standard MTT toxicity test. For panel C: X-axis: From left to right: Untreated cells; Alpha galactosyl ceramide at 10 μM, 5 μM, 2.5 μM, 1 μM, 0.5 μM, 0.1 μM. Y-axis, percent viability as compared to untreated group. For Panel D: X-axis: From left to right: Untreated cells; N-9-oxadecyl-6-methyl-DGJ at 2000 μM, 800 μM. 400 μM, 200 μM, 100 μM, 10 μm. Y-axis, percent viability as compared to untreated group.
Toxicity was determined by mitochondrial toxicity testing (MTT) of cells that had been exposed to compounds in a manner similar to the anti-viral assays except cells were treated in 24 well trays. Briefly, Hep G2 2.2.15 cells were treated with drug as indicated in the figure legends for 3 days, the media removed and replaced with 100 μl of a 10 mg/ml solution of tetrazolium bromide [[3-[4,5-dimethylthiazol-2-yl]-2,5-diphenyltetrazolium bromide, Sigma Chemicals] for one hour at 37° C. Addition of 100-200 μl of dimethylsulfoxide (DMSO) led to color development. Supernatants were removed and placed in a 96 well tray for analysis. OD values were read at 590 nm.

[7] = test system: HCV replicon; experiment: HCV subgenomic replicon RNA level in 9-13 cells (Northern blot); format: cell-based, hepatitis C virus; conditions: 48 hours
Description: A) Total RNA was isolated, resolved through agarose gels and hybridized to a radioactive probe specific for HCV NS5B. After washing, the blot was and re-probed with radioactive beta-actin specific sequences to control for loading of lanes.
Beta-actin protein and RNA were used as controls in these experiments.
9-13 cells were seeded in T25 flask at 3×10^6 cells. […] Northern blot analysis was done to analyze HCV replicon RNA level.
Briefly, 2 μg total RNA was electrophoresed through a 1.0% agarose gel containing 2.2 M formaldehyde, transferred to a nylon membrane and immobilized by Lw cross-linking (Stratagene). Hybridization was carried out using an alpha-[^32P]CTP-labeled probe with random primers on a 2 kb NS5B DNA fragment in a quick hybridization solution (Amersham Bioscience, Piscataway, N.J.) for 16 h at 65° C. The membranes were washed once in 2×SSC/0.1% SDS for 30 min at room temperature and twice in 0.1×SSC/0.1% SDS for 30 min at 65° C.

[8] = test system: HBsAg, core antigen, HBV polymerase; experiment: Effect on HBsAg and core antigen production or secretion and HBV polymerase activity; format: cell-based, hepatitis B virus; conditions: at concentrations that were highly anti-viral
Text: Both alpha galactosyl ceramide and the “alkovirs”, described herein, have anti-hepatitis B virus activity (FIG. 2).
This indicates both that the compounds were both well tolerated at these concentrations and that the anti-viral activity cannot be explained by a direct effect upon the synthesis of viral products but rather through the activation of a cellular defense mechanism.

## CCCCCCCCCOCC1NCC(O)C(O)C1O (centres unmarked) [6-O-nonyl-deoxynojirimycin]
[1]; BVDV infected MDBK cells, surrogate of hepatitis C virus, read-out: IC50 against BVDV
  IC50: 3 µM
[1]; virus not named at b41, BVDV assumed
  antiviral activity: retains antiviral activity
[2]
  glucosidase inhibitory activity: no glucosidase inhibitory activity

## CCOCCCCCCN1CC(O)C(O)C(O)C1C(C)O (centres unmarked) [N-7-oxanonyl-6-methyl-DGJ]
[3]
  induction of medium (p69) and small (p40) 2′,5′ OAS genes: did not detectably induce 2′,5′ OAS gene expression
[4]
  anti-viral activity against hepatitis B virus: no anti-viral activity against hepatitis B virus; also recorded: limited anti viral activity against HBV

## COCCCCCCCCN1CC(O)C(O)C(O)C1C(C)O (centres unmarked) [N-9-oxadecyl-6-methyl-DGJ]
[5]
  IC50: ~1 µM
  secretion of enveloped HBV (HBV rc DNA in culture medium): exerted anti-viral activity at varying doses
[6]
  CC50: > 2000 µM
  toxicity: little or no toxicity
[3]; 70 μM, Southern blot-R/T PCR
  fold induction of the 2′,5′ OAS gene: 20 fold
[3]
  induction of medium (p69) and small (p40) 2′,5′ OAS genes: induced only the small (p40) 2′,5′ OAS gene expression
[3]; lower concentrations (below 70 μM), dose dependent
  fold increase in 2′,5′ OAS gene expression: 2-15 fold
[7]; 9-13 cells, three separate experiments, read-out: IC50 for reduction of HCV RNA
  IC50: 1.5 µM
[8]
  effect upon HBsAg production or secretion, core antigen production or secretion or HBV polymerase activity: Neither Alpha Galactosyl Ceramide or N-9-oxadecyl-6-methyl-DGJ had any Detectable Effect

## CCCCCCCCCCCCCCCCCCCCCCCCCC(=O)N[C@@H](CO[C@H]1O[C@H](CO)[C@H](O)[C@H](O)[C@H]1O)[C@H](O)[C@H](O)CCCCCCCCCCCCCC [alpha galactosyl ceramide, reference compound]
[5]
  IC50: ~0.0004 µM
  secretion of enveloped HBV (HBV rc DNA in culture medium): inhibited the secretion of enveloped HBV
[6]; FIG. 2-3
  toxicity: little or no toxicity
[6]; Hep G2 2.2.15 cells, 3 days, MTT, read-out: CC50
  CC50: 8 µM
[3]
  induction of medium (p69) and small (p40) 2′,5′ OAS genes: induced only the small (p40) 2′,5′ OAS gene expression
[8]
  effect upon HBsAg production or secretion, core antigen production or secretion or HBV polymerase activity: Neither Alpha Galactosyl Ceramide or N-9-oxadecyl-6-methyl-DGJ had any Detectable Effect

## interferon alpha
[5]
  secretion of enveloped HBV (HBV rc DNA in culture medium): inhibits secretion effectively
[3]
  induction of medium (p69) and small (p40) 2′,5′ OAS genes: potent inducer of both the medium (p69) and small (p40) 2′,5′ OAS genes
[7]
  replication of HCV RNA in 9-13 cells: sensitive to interferon alpha
